ChEMBL document CHEMBL5154810, “Development of Potent Immune Modulators Targeting Stimulator of Interferon Genes Receptor” (J Med Chem, 2022)
The source made the active and inactive calls. The calls are words filed in the database; no cut-off is given here.

What was measured:
[1] = Stability in human plasma assessed as parent compound remaining at 5 uM measured after 4 hrs by HPLC-MS/MS analysis; format: ADME, cell-free; conditions: read-out: Stability
[2] = tested on: THP-1; experiment: Upregulation of OAS1 in human THP-1 cells at 100 nM measured after 6 to 18 hrs by RT-PCR analysis; format: functional, cell-based; conditions: time 6-18 hrs
[3] = molecular target: T1, Stimulator of interferon genes protein (Homo sapiens, UniProt Q86WV6); experiment: Activation of STING dependent immune response in wild type human THP1-Dual cells assessed as induction of IFN-beta secretion at 1.28 to 3.2 nM measured after 24 hrs by ELISA; format: cell-based; conditions: filed as activator, dose 1.28-3.2 nM
T1 sequence (Q86WV6 whole entry): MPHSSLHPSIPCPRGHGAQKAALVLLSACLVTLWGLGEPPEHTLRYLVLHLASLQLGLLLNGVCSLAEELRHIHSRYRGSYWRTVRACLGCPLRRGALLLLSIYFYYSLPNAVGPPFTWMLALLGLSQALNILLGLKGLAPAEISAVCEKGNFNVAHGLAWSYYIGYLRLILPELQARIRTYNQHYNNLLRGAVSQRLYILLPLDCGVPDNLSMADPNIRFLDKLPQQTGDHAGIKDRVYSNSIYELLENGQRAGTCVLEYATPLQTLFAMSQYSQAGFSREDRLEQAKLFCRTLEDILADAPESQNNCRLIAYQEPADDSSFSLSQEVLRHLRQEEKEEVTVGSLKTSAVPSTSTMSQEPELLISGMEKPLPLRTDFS

[4] = tested on: THP-1; experiment: Upregulation of IFNB in human THP-1 cells at 100 nM measured after 6 hrs by RT-PCR analysis; format: functional, cell-based
[5] = molecular target: T2, Cytochrome P450 1A2 (Homo sapiens, UniProt P05177); experiment: Inhibition of CYP1A2 in human liver microsomes using phenacetin as cocktail probe substrate preincubated for 5 mins followed by NADPH addition and measured after 30 mins by HPLC-MS/MS analysis; format: ADME, Microsome
T2 sequence (P05177 whole entry): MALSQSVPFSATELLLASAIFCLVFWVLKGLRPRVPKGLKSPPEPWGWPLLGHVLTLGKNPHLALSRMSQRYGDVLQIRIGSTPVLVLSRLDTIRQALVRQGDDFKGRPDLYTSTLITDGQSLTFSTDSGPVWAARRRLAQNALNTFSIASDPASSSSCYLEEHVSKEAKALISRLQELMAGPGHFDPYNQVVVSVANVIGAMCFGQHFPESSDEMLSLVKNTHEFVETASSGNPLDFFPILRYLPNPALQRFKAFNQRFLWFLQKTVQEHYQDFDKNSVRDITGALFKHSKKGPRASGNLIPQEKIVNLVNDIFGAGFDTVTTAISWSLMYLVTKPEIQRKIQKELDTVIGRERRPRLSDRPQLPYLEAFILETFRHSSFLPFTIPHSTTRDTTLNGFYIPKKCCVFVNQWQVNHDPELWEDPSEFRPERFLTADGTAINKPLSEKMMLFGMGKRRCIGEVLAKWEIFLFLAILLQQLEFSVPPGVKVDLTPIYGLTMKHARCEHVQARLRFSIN

[6] = tested on: THP-1; experiment: Upregulation of IFIT3 in human THP-1 cells at 100 nM measured after 6 to 18 hrs by RT-PCR analysis; format: functional, cell-based; conditions: time 6-18 hrs
[7] = molecular target: T3, Stimulator of interferon genes protein (Mus musculus) (UniProt Q3TBT3); experiment: Activation of STING mediated immune response in mouse RAW264.7 cells assessed as induction of IFNbeta secretion measured after 24 hrs by ELISA; format: cell-based; conditions: filed as activator, dose 0.32-5000 nM, DDE = dose-dependent effect
T3 sequence (whole entry): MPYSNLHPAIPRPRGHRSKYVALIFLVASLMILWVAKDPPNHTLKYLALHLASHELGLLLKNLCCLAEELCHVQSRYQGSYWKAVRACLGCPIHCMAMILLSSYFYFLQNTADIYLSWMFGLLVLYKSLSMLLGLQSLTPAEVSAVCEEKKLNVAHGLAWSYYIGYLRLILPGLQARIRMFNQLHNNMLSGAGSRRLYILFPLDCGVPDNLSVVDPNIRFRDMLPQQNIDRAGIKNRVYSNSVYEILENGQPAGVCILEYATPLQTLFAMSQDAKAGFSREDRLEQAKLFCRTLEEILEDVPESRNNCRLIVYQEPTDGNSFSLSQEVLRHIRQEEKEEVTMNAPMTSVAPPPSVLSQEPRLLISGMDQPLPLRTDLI

[8] = Toxicity in BALB/c syngenic mouse bearing CT26 cells assessed as effect on body weight at 0.015 to 1.5 mg/kg, iv measured every 2 to 3 days for 17 days; format: organism-based; conditions: in vivo, 408 h, dose 0.015-1.5 mg/kg, time 17 day
[9] = Volume of distribution at steady state in BALB/c mouse at 3 mg/kg, iv by LC-MS/MS analysis; format: ADME, organism-based; conditions: in vivo, read-out: Vdss
[10] = molecular target: Cytochrome P450 3A4 (Homo sapiens, UniProt P08684); experiment: Inhibition of CYP3A4 in human liver microsomes using […] as cocktail probe substrate preincubated for 5 mins followed by NADPH addition and measured after 30 mins by HPLC-MS/MS analysis; format: ADME, Microsome
Chain of Cytochrome P450 3A4 (P08684 whole entry): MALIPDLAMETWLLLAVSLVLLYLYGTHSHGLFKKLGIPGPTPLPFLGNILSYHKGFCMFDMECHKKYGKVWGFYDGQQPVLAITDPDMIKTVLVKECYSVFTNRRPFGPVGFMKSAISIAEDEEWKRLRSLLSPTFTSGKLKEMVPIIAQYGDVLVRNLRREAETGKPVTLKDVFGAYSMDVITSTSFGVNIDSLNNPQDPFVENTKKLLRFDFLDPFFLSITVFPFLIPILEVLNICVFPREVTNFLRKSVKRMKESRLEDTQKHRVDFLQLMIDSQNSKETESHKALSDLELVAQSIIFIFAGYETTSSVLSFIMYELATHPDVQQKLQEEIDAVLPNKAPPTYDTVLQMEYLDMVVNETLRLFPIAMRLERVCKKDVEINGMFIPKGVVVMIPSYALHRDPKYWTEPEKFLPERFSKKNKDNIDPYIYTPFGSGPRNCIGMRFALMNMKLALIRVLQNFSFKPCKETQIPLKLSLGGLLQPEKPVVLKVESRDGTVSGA

[11] = molecular target: T1, Stimulator of interferon genes protein; experiment: Activation of STING mediated immune response in human THP-1 cells assessed as induction of IFNbeta secretion measured after 24 hrs by ELISA; format: cell-based
[12] = Stability in mouse liver microsome assessed as parent compound remaining at 1 uM measured after 30 mins in the presence of NADPH by HPLC-MS/MS analysis; format: ADME; conditions: liver microsomes, read-out: Stability
[13] = Clearance in BALB/c mouse at 3 mg/kg, iv by LC-MS/MS analysis; format: ADME, organism-based; conditions: in vivo, iv, 3 mg/kg
[14] = Stability in human liver microsome assessed as parent compound remaining at 1 uM measured after 30 mins in the presence of NADPH by HPLC-MS/MS analysis; format: ADME; conditions: liver microsomes, read-out: Stability
[15] = AUCinfinity in BALB/c mouse at 3 mg/kg, iv by LC-MS/MS analysis; format: ADME, organism-based; set-up: time infinity, dose 3 mg/kg, route iv; conditions: in vivo
[16] = tested on: CT26; experiment: Antitumor activity against CT26 cells injected in BALB/c syngenic mouse model assessed as reduction in tumor growth at 0.015 to 1.5 mg/kg, iv measured every 2 to 3 days for 17 days; format: functional, organism-based; conditions: dose 0.015-1.5 mg/kg, time 17.0 day
[17] = Stability in mouse plasma assessed as parent compound remaining at 5 uM measured after 4 hrs by HPLC-MS/MS analysis; format: ADME, cell-free; conditions: read-out: Stability
[18] = tested on: THP-1; experiment: Upregulation of IRF7 in human THP-1 cells at 100 nM measured after 6 to 18 hrs by RT-PCR analysis; format: functional, cell-based; conditions: time 6-18 hrs

In the case of CCn1nc(C)cc1C(=O)Nc1nc2cc(C(N)=O)cc(OC)c2n1C/C=C/Cn1c(NC(=O)c2cc(C)nn2CC)nc2cc(C(N)=O)cc(OCCCNC(=O)OC(C)(C)C)c21, the remaining at 4 h, 5 µM [1] is reported as over 99%, the Activity [2] is reported as “Active” and the Activity [3] is reported as “Active”. For the same compound, the Activity [4] was “Active”, the IC50 [5] was over 100 µM and the Activity [6] was “Active”. The Activity [7] was “Dde”, the Activity [8] was “Non-Toxic” and the Vd [9] was 17.7 L/kg. The IC50 [10] was 4.2 µM, the EC50 [11] was 0.002 µM and the Activity ([11]; filed as activator, dose 0.12-2000 nM, DDE = dose-dependent effect) was “Dde”. The remaining at 0.5 h, 1 µM [12] was 38.7%, the CL [13] was 35.3 mL/min/kg and the remaining at 0.5 h, 1 µM [14] was 11.2%. For the same compound, the AUC [15] was 4780 ng·h/mL, the Activity [16] was “Active” and the remaining at 4 h, 5 µM [17] was over 99%. For the same compound, the Activity [18] was “Active”.
